# Reference: patent US12673954B2 (BRISTOL-MYERS SQUIBB COMPANY, priority 2021, dated 2026)
# Like-named read-outs stand apart in the source and are kept apart here.
# Columns and labels:
# [1] = system: IRF pathway, THP1-Dual™ cells; experiment: STING reporter assay in THP1-Dual cells, IRF pathway (Lucia luciferase, QUANTI-Luc); type: cell-based, human; details: THP1-Dual cells, 10% human plasma, 20 hours, Lucia luciferase, 100% activation = 100 μM cGAMP, read-out: IRF (EC50 μM)
# Procedure, shortened: (§1)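 Activation normalised between DMSO-only baseline and 100 μM cGAMP maximum, after 20 h compound exposure (starting at 100 μM final) at 37° C, 5% CO2. Supernatant SEAP (QUANTI-Blue, OD620) reports NF-κB; secreted luciferase (QUANTI-Luc, RLU at 5 min) reports IRF.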
# [2] = system: NF-κB pathway, THP1-Dual™ cells; experiment: STING reporter assay in THP1-Dual cells, NF-κB pathway (SEAP, QUANTI-Blue); type: cell-based, human; details: THP1-Dual cells, 10% human plasma, 20 hours, SEAP, 100% activation = 100 μM cGAMP, read-out: NFkB (EC50 μM)
# Procedure, shortened: as §1
"EC50 ([1]; Homo sapiens, THP1-Dual, 20 h) [µM]","EC50 ([2]; Homo sapiens, THP1-Dual, 20 h) [µM]",EC50 [1] [µM],EC50 [2] [µM],SMILES
21,31,–,–,"COC(=O)c1c(C)ccc2cc(CNC(=O)c3cnn4cccnc34)oc12 [EXAMPLE 108, Methyl 6-methyl-2-((pyrazolo[1,5-a]pyrimidine-3-carboxamido)methyl)benzofuran-7-carboxylate]"
13,12,–,–,"CSC(=O)c1cccc2cc(CNC(=O)c3cnccn3)oc12 [EXAMPLE 381, S-Methyl 2-((pyrazine-2-carboxamido)methyl)benzofuran-7-carbothioate]"
5.1,3.1,–,–,"COC(=O)c1cccc2cc(Cn3cnc4ccncc4c3=O)oc12 [EXAMPLE 6, Methyl 2-((4-oxopyrido[4,3-d]pyrimidin-3(4H)-yl)methyl)benzofuran-7-carboxylate]"
0.91,1.1,–,–,"O=C(OCC(F)(F)F)c1cc(Cl)cc2cc(CNC(=O)c3cnc4cccnn34)oc12 [EXAMPLE 369, 2,2,2-Trifluoroethyl 5-chloro-2-((imidazo[1,2-b]pyridazine-3-carboxamido)methyl)benzofuran-7-carboxylate]"
3.4,3.7,–,–,"COC(=O)c1cc(Cl)cc2cc(Cn3ccc4ccncc4c3=O)oc12 [Example 78, Methyl 5-chloro-2-((1-oxo-2,7-naphthyridin-2(1H)-yl)methyl)benzofuran-7-carboxylate]"
1.8,1,–,–,"O=C(OC1CC(F)(F)C1)c1cc(Cl)cc2cc(CNC(=O)c3cnn4cccnc34)oc12 [EXAMPLE 245, 3,3-Difluorocyclobutyl 5-chloro-2-((pyrazolo[1,5-a]pyrimidine-3-carboxamido)methyl)benzofuran-7-carboxylate]"
5.8,6.6,–,–,"C[C@H](NC(=O)c1cnn2cccnc12)c1cc2cc(Cl)cc(C(=O)OC3CC(F)(F)C3)c2o1 [EXAMPLE 267, 3,3-Difluorocyclobutyl (S)-5-chloro-2-(1-(pyrazolo[1,5-a]pyrimidine-3-carboxamido)ethyl)benzofuran-7-carboxylate]"
3.5,3.6,–,–,"COC(=O)c1cc(C)cc2cc(Cn3ccc4ccncc4c3=O)oc12 [Example 85, Methyl 5-methyl-2-((1-oxo-2,7-naphthyridin-2(1H)-yl)methyl)benzofuran-7-carboxylate]"
22,37,–,–,"COC(=O)c1cc(Cl)cc2cc(Cn3ccc4ncncc4c3=O)oc12 [Example 75, Methyl 5-chloro-2-((5-oxopyrido[4,3-d]pyrimidin-6(5H)-yl)methyl)benzofuran-7-carboxylate]"
0.67,0.62,–,–,"O=C(OCC(F)(F)F)c1cccc2c(Cl)c(CNC(=O)c3cnn4cccnc34)oc12 [EXAMPLE 223, 2,2,2-Trifluoroethyl 3-chloro-2-((pyrazolo[1,5-a]pyrimidine-3-carboxamido)methyl)benzofuran-7-carboxylate]"
44,39,–,–,"COC(=O)c1cccc2cc(CNC(=O)c3cncnc3)oc12 [EXAMPLE 15, Methyl 2-((pyrimidine-5-carboxamido)methyl)benzofuran-7-carboxylate]"
5.5,6.3,–,–,"COC(=O)c1cc(Cl)cc2cc(CN3CCc4ccncc4C3=O)oc12 [Example 77, Methyl 5-chloro-2-((1-oxo-3,4-dihydro-2,7-naphthyridin-2(1H)-yl)methyl)benzofuran-7-carboxylate]"
–,–,1.3,1.5,"CC(NC(=O)c1cnn2cccnc12)c1cc2cc(F)cc(C(=O)OCC(F)(F)F)c2o1 (single isomer, unassigned) [EXAMPLE 328, 2,2,2-Trifluoroethyl 5-fluoro-2-(1-(pyrazolo[1,5-a]pyrimidine-3-carboxamido)ethyl)benzofuran-7-carboxylate]"
3.9,3.9,–,–,"O=C(NCc1cc2cc(Cl)cc(C(=O)OCC(F)(F)F)c2o1)c1cnccn1 [EXAMPLE 373, 2,2,2-Trifluoroethyl 5-chloro-2-((pyrazine-2-carboxamido)methyl)benzofuran-7-carboxylate]"
13,12,–,–,"CC(C)OC(=O)c1cccc2cc(CN3CCc4ccncc4C3=O)oc12 [EXAMPLE 206, Isopropyl 2-((1-oxo-3,4-dihydro-2,7-naphthyridin-2(1H)-yl)methyl)benzofuran-7-carboxylate]"
4.3,3.5,–,–,"Cc1cc(C(=O)OCC(F)(F)F)c2oc(Cn3cnc4ccncc4c3=O)cc2c1 [EXAMPLE 374, 2,2,2-Trifluoroethyl 5-methyl-2-((4-oxopyrido[4,3-d]pyrimidin-3(4H)-yl)methyl)benzofuran-7-carboxylate]"
–,–,0.91,0.92,"COC(OC(=O)c1cc(Br)cc2cc(CNC(=O)c3cnn4cccnc34)oc12)C(F)(F)F (single isomer, unassigned) [EXAMPLE 340, 2,2,2-Trifluoro-1-methoxyethyl 5-bromo-2-((pyrazolo[1,5-a]pyrimidine-3-carboxamido)methyl)benzofuran-7-carboxylate]"
10,15,–,–,COC(=O)c1ccc(F)c2cc(Cn3cnc4ccncc4c3=O)oc12 [EXAMPLE 25]
1.3,1.5,–,–,"CSC(=O)c1cc(F)cc2cc([C@H](C)NC(=O)c3cnn4cccnc34)oc12 [EXAMPLE 399, S-Methyl (S)-5-fluoro-2-(1-(pyrazolo[1,5-a]pyrimidine-3-carboxamido)ethyl)benzofuran-7-carbothioate]"
12,12,–,–,"N#Cc1cc(C(=O)OCC(F)(F)F)c2oc(CNC(=O)c3cnn4cccnc34)cc2c1 [EXAMPLE 282, 2,2,2-Trifluoroethyl 5-cyano-2-((pyrazolo[1,5-a]pyrimidine-3-carboxamido)methyl)benzofuran-7-carboxylate]"
–,–,5.6,3.9,"COC(OC(=O)c1cc(C#N)cc2cc(CNC(=O)c3cnn4cccnc34)oc12)C(F)(F)F (single isomer, unassigned) [EXAMPLE 348, 2,2,2-Trifluoro-1-methoxyethyl 5-cyano-2-((pyrazolo[1,5-a]pyrimidine-3-carboxamido)methyl)benzofuran-7-carboxylate]"
0.95,0.82,–,–,"CCOC(=O)OC(C)OC(=O)c1cc(Cl)cc2cc(CNC(=O)c3cnn4cccnc34)oc12 (racemic) [EXAMPLE 261, 1-((Ethoxycarbonyl)oxy)ethyl 5-chloro-2-((pyrazolo[1,5-a]pyrimidine-3-carboxamido)methyl)benzofuran-7-carboxylate]"
0.8,0.93,–,–,"O=C(OCC(F)(F)F)c1cc(Cl)cc2c(Cl)c(CNC(=O)c3cnn4cccnc34)oc12 [EXAMPLE 294, 2,2,2-Trifluoroethyl 3,5-dichloro-2-((pyrazolo[1,5-a]pyrimidine-3-carboxamido)methyl)benzofuran-7-carboxylate]"
9.2,17,–,–,"O=C(OC1CC1)c1cccc2cc(CN3CCc4ccncc4C3=O)oc12 [EXAMPLE 207, Cyclopropyl 2-((1-oxo-3,4-dihydro-2,7-naphthyridin-2(1H)-yl)methyl)benzofuran-7-carboxylate]"
–,–,7.2,6,"CC(OC(=O)c1cc(Br)cc2cc(CNC(=O)c3cnn4cccnc34)oc12)C(F)(F)F (single isomer, unassigned) [EXAMPLE 342, 1,1,1-Trifluoropropan-2-yl 5-bromo-2-((pyrazolo[1,5-a]pyrimidine-3-carboxamido)methyl)benzofuran-7-carboxylate]"
0.43,0.52,–,–,"Cc1cc(C(=O)OC(CF)CF)c2oc(CNC(=O)c3cnn4cccnc34)c(Cl)c2c1 [EXAMPLE 302, 1,3-Difluoropropan-2-yl 3-chloro-5-methyl-2-((pyrazolo[1,5-a]pyrimidine-3-carboxamido)methyl)benzofuran-7-carboxylate]"
5.7,4.6,–,–,"C[C@H](NC(=O)c1cnn2cccnc12)c1oc2c(C(=O)O[C@H](C)C(F)(F)F)cc(Cl)cc2c1Cl [EXAMPLE 296, (R)-1,1,1-Trifluoropropan-2-yl 3,5-dichloro-2-((S)-1-(pyrazolo[1,5-a]pyrimidine-3-carboxamido)ethyl)benzofuran-7-carboxylate]"
23,31,–,–,"O=C(OCCO)c1cccc2cc(CN3CCc4ccncc4C3=O)oc12 [EXAMPLE 211, 2-Hydroxyethyl 2-((1-oxo-3,4-dihydro-2,7-naphthyridin-2(1H)-yl)methyl)benzofuran-7-carboxylate]"
3.1,3.2,–,–,"C[C@H](NC(=O)c1cnn2cccnc12)c1oc2c(C(=O)OCC(F)(F)F)cc(Cl)cc2c1Cl [EXAMPLE 297, 2,2,2-Trifluoroethyl (S)-3,5-dichloro-2-(1-(pyrazolo[1,5-a]pyrimidine-3-carboxamido)ethyl)benzofuran-7-carboxylate]"
2.3,2.5,–,–,"COC(=O)c1cc(F)cc2cc(Cn3ccc4ccncc4c3=O)oc12 [EXAMPLE 38, Methyl 5-fluoro-2-((1-oxo-2,7-naphthyridin-2(1H)-yl)methyl)benzofuran-7-carboxylate]"

SMILES,"EC50 ([1]; Homo sapiens, THP1-Dual, 20 h) [µM]","EC50 ([2]; Homo sapiens, THP1-Dual, 20 h) [µM]",EC50 [1] [µM],EC50 [2] [µM]
"CC(=O)OCOC(=O)c1cc(Cl)cc2cc(CNC(=O)c3cnn4cccnc34)oc12 [EXAMPLE 259, Acetoxymethyl 5-chloro-2-((13yrazole[1,5-a]pyrimidine-3-carboxamido)methyl)benzofuran-7-carboxylate]",2.3,2.2,–,–
